Experimental data published in ChEMBL document CHEMBL3872214, “Synthesis and evaluation of in vivo antioxidant, in vitro antibacterial, MRSA and antifungal activity of novel substituted isatin N-(2,3,4,6-tetra-O-acetyl-β-d-glucopyranosyl)thiosemicarbazones” (Eur J Med Chem, 2016).
Converted amounts (≈) assume the structure as drawn.

system: Staphylococcus epidermidis; assay: Antibacterial activity against Staphylococcus epidermidis ATCC 12228 after 18 to 20 hrs by two-fold microbroth dilution method; type: functional; details: not given

Structure (SMILES)	MIC [µM]
CCCN1C(=O)/C(=N/NC(=S)N[C@@H]2O[C@H](COC(C)=O)[C@@H](OC(C)=O)[C@H](OC(C)=O)[C@H]2OC(C)=O)c2ccccc21	100 (≈ 59.3 µg/mL)
CC(=O)OC[C@H]1O[C@@H](NC(=S)N/N=C2/C(=O)Nc3ccccc32)[C@H](OC(C)=O)[C@@H](OC(C)=O)[C@@H]1OC(C)=O	100 (≈ 55.1 µg/mL)

system: Rattus norvegicus; assay: (§1) Antioxidant activity in CCL4-intoxicated Wistar albino rat assessed as liver cytosolic glutathione peroxidase activity per mg protein at 100 mg/kg, ip administered for 7 consecutive days after DL-alpha-tocopherol acetate treatment followed by CCL4 dosing measured after 24 hrs by H2O2 based spectrophotometric analysis (reference value: 0.28 +/- 0.01 U); type: functional; details: not given

Structure (SMILES)	Activity [U]
CCCN1C(=O)/C(=N/NC(=S)N[C@@H]2O[C@H](COC(C)=O)[C@@H](OC(C)=O)[C@H](OC(C)=O)[C@H]2OC(C)=O)c2ccccc21	0.84
CC(=O)OC[C@H]1O[C@@H](NC(=S)N/N=C2/C(=O)Nc3ccccc32)[C@H](OC(C)=O)[C@@H](OC(C)=O)[C@@H]1OC(C)=O	1.77

system: Escherichia coli; assay: Antibacterial activity against Escherichia coli ATCC 25922 after 18 to 20 hrs by two-fold microbroth dilution method; type: functional; details: not given

Structure (SMILES)	MIC [µM]
CCCN1C(=O)/C(=N/NC(=S)N[C@@H]2O[C@H](COC(C)=O)[C@@H](OC(C)=O)[C@H](OC(C)=O)[C@H]2OC(C)=O)c2ccccc21	12.5 (≈ 7.41 µg/mL)
CC(=O)OC[C@H]1O[C@@H](NC(=S)N/N=C2/C(=O)Nc3ccccc32)[C@H](OC(C)=O)[C@@H](OC(C)=O)[C@@H]1OC(C)=O	50 (≈ 27.5 µg/mL)

system: not listed separately; assay: Antifungal activity against Saccharomyces cerevisiae SH20 after 72 hrs by agar dilution method; type: functional; details: not given

Structure (SMILES)	MIC [µM]
CCCN1C(=O)/C(=N/NC(=S)N[C@@H]2O[C@H](COC(C)=O)[C@@H](OC(C)=O)[C@H](OC(C)=O)[C@H]2OC(C)=O)c2ccccc21	400 (≈ 237 µg/mL)
CC(=O)OC[C@H]1O[C@@H](NC(=S)N/N=C2/C(=O)Nc3ccccc32)[C@H](OC(C)=O)[C@@H](OC(C)=O)[C@@H]1OC(C)=O	100 (≈ 55.1 µg/mL)

system: Aspergillus niger; assay: Antifungal activity against Aspergillus niger 439 after 72 hrs by agar dilution method; type: functional; details: Aspergillus niger, 439, 72 h

Structure (SMILES)	MIC [µM]
CCCN1C(=O)/C(=N/NC(=S)N[C@@H]2O[C@H](COC(C)=O)[C@@H](OC(C)=O)[C@H](OC(C)=O)[C@H]2OC(C)=O)c2ccccc21	50 (≈ 29.6 µg/mL)
CC(=O)OC[C@H]1O[C@@H](NC(=S)N/N=C2/C(=O)Nc3ccccc32)[C@H](OC(C)=O)[C@@H](OC(C)=O)[C@@H]1OC(C)=O	100 (≈ 55.1 µg/mL)

system: Candida albicans; assay: Antifungal activity against Candida albicans ATCC 7754 after 72 hrs by agar dilution method; type: functional; details: ATCC 7754, 72 h

Structure (SMILES)	MIC [µM]
CCCN1C(=O)/C(=N/NC(=S)N[C@@H]2O[C@H](COC(C)=O)[C@@H](OC(C)=O)[C@H](OC(C)=O)[C@H]2OC(C)=O)c2ccccc21	400 (≈ 237 µg/mL)
CC(=O)OC[C@H]1O[C@@H](NC(=S)N/N=C2/C(=O)Nc3ccccc32)[C@H](OC(C)=O)[C@@H](OC(C)=O)[C@@H]1OC(C)=O	200 (≈ 110 µg/mL)

system: Klebsiella pneumoniae; assay: Antibacterial activity against Klebsiella pneumoniae ATCC 4352 after 18 to 20 hrs by two-fold microbroth dilution method; type: functional; details: not given

Structure (SMILES)	MIC [µM]
CCCN1C(=O)/C(=N/NC(=S)N[C@@H]2O[C@H](COC(C)=O)[C@@H](OC(C)=O)[C@H](OC(C)=O)[C@H]2OC(C)=O)c2ccccc21	12.5 (≈ 7.41 µg/mL)
CC(=O)OC[C@H]1O[C@@H](NC(=S)N/N=C2/C(=O)Nc3ccccc32)[C@H](OC(C)=O)[C@@H](OC(C)=O)[C@@H]1OC(C)=O	50 (≈ 27.5 µg/mL)

system: Pseudomonas aeruginosa; assay: Antibacterial activity against Pseudomonas aeruginosa […] after 18 to 20 hrs by two-fold microbroth dilution method; type: functional; details: not given

Structure (SMILES)	MIC [µM]
CCCN1C(=O)/C(=N/NC(=S)N[C@@H]2O[C@H](COC(C)=O)[C@@H](OC(C)=O)[C@H](OC(C)=O)[C@H]2OC(C)=O)c2ccccc21	12.5 (≈ 7.41 µg/mL)
CC(=O)OC[C@H]1O[C@@H](NC(=S)N/N=C2/C(=O)Nc3ccccc32)[C@H](OC(C)=O)[C@@H](OC(C)=O)[C@@H]1OC(C)=O	50 (≈ 27.5 µg/mL)

system: Rattus norvegicus; assay: as §1, with “catalase” for “glutathione peroxidase”, “assay” for “spectrophotometric analysis”, “220.15” for “0.28”, “11.43” for “0.01”; type: functional; details: not given

Structure (SMILES)	Activity [U]
CCCN1C(=O)/C(=N/NC(=S)N[C@@H]2O[C@H](COC(C)=O)[C@@H](OC(C)=O)[C@H](OC(C)=O)[C@H]2OC(C)=O)c2ccccc21	367.63
CC(=O)OC[C@H]1O[C@@H](NC(=S)N/N=C2/C(=O)Nc3ccccc32)[C@H](OC(C)=O)[C@@H](OC(C)=O)[C@@H]1OC(C)=O	295.32

system: Klebsiella aerogenes; assay: Antibacterial activity against Enterobacter aerogenes ATCC 13048 after 18 to 20 hrs by two-fold microbroth dilution method; type: functional; details: not given

Structure (SMILES)	MIC [µM]
CCCN1C(=O)/C(=N/NC(=S)N[C@@H]2O[C@H](COC(C)=O)[C@@H](OC(C)=O)[C@H](OC(C)=O)[C@H]2OC(C)=O)c2ccccc21	12.5 (≈ 7.41 µg/mL)
CC(=O)OC[C@H]1O[C@@H](NC(=S)N/N=C2/C(=O)Nc3ccccc32)[C@H](OC(C)=O)[C@@H](OC(C)=O)[C@@H]1OC(C)=O	50 (≈ 27.5 µg/mL)

system: Rattus norvegicus; assay: as §1, with “superoxide dismutase” for “glutathione peroxidase”, “xanthine” for “H2O2”, “assay” for “spectrophotometric analysis”, “5.27” for “0.28”, “0.22” for “0.01”; type: functional; details: not given

Structure (SMILES)	Activity [U]
CCCN1C(=O)/C(=N/NC(=S)N[C@@H]2O[C@H](COC(C)=O)[C@@H](OC(C)=O)[C@H](OC(C)=O)[C@H]2OC(C)=O)c2ccccc21	9.77
CC(=O)OC[C@H]1O[C@@H](NC(=S)N/N=C2/C(=O)Nc3ccccc32)[C@H](OC(C)=O)[C@@H](OC(C)=O)[C@@H]1OC(C)=O	5.81

system: Staphylococcus aureus; assay: Antibacterial activity against Staphylococcus aureus ATCC 11632 after 18 to 20 hrs by two-fold microbroth dilution method; type: functional; details: not given

Structure (SMILES)	MIC [µM]
CCCN1C(=O)/C(=N/NC(=S)N[C@@H]2O[C@H](COC(C)=O)[C@@H](OC(C)=O)[C@H](OC(C)=O)[C@H]2OC(C)=O)c2ccccc21	100 (≈ 59.3 µg/mL)
CC(=O)OC[C@H]1O[C@@H](NC(=S)N/N=C2/C(=O)Nc3ccccc32)[C@H](OC(C)=O)[C@@H](OC(C)=O)[C@@H]1OC(C)=O	200 (≈ 110 µg/mL)

system: not listed separately; assay: Antifungal activity against Fusarium oxysporum M42 after 72 hrs by agar dilution method; type: functional; details: not given

Structure (SMILES)	MIC [µM]
CCCN1C(=O)/C(=N/NC(=S)N[C@@H]2O[C@H](COC(C)=O)[C@@H](OC(C)=O)[C@H](OC(C)=O)[C@H]2OC(C)=O)c2ccccc21	100 (≈ 59.3 µg/mL)
CC(=O)OC[C@H]1O[C@@H](NC(=S)N/N=C2/C(=O)Nc3ccccc32)[C@H](OC(C)=O)[C@@H](OC(C)=O)[C@@H]1OC(C)=O	100 (≈ 55.1 µg/mL)

system: Staphylococcus aureus; assay: Antibacterial activity against methicillin-resistant Staphylococcus aureus 198-1 after 18 to 20 hrs by two-fold microbroth dilution method; type: functional; details: not given

Structure (SMILES)	MIC [µM]
CCCN1C(=O)/C(=N/NC(=S)N[C@@H]2O[C@H](COC(C)=O)[C@@H](OC(C)=O)[C@H](OC(C)=O)[C@H]2OC(C)=O)c2ccccc21	100 (≈ 59.3 µg/mL)
CC(=O)OC[C@H]1O[C@@H](NC(=S)N/N=C2/C(=O)Nc3ccccc32)[C@H](OC(C)=O)[C@@H](OC(C)=O)[C@@H]1OC(C)=O	200 (≈ 110 µg/mL)

system: Staphylococcus aureus; assay: Antibacterial activity against methicillin-resistant Staphylococcus aureus 198-2 after 18 to 20 hrs by two-fold microbroth dilution method; type: functional; details: not given

Structure (SMILES)	MIC [µM]
CCCN1C(=O)/C(=N/NC(=S)N[C@@H]2O[C@H](COC(C)=O)[C@@H](OC(C)=O)[C@H](OC(C)=O)[C@H]2OC(C)=O)c2ccccc21	100 (≈ 59.3 µg/mL)
CC(=O)OC[C@H]1O[C@@H](NC(=S)N/N=C2/C(=O)Nc3ccccc32)[C@H](OC(C)=O)[C@@H](OC(C)=O)[C@@H]1OC(C)=O	200 (≈ 110 µg/mL)

system: Staphylococcus aureus; assay: Antibacterial activity against methicillin-resistant Staphylococcus aureus 198-3 after 18 to 20 hrs by two-fold microbroth dilution method; type: functional; details: not given

Structure (SMILES)	MIC [µM]
CCCN1C(=O)/C(=N/NC(=S)N[C@@H]2O[C@H](COC(C)=O)[C@@H](OC(C)=O)[C@H](OC(C)=O)[C@H]2OC(C)=O)c2ccccc21	100 (≈ 59.3 µg/mL)
CC(=O)OC[C@H]1O[C@@H](NC(=S)N/N=C2/C(=O)Nc3ccccc32)[C@H](OC(C)=O)[C@@H](OC(C)=O)[C@@H]1OC(C)=O	200 (≈ 110 µg/mL)

system: Bacillus subtilis; assay: Antibacterial activity against Bacillus subtilis ATCC 11774 after 18 to 20 hrs by two-fold microbroth dilution method; type: functional; details: not given

Structure (SMILES)	MIC [µM]
CCCN1C(=O)/C(=N/NC(=S)N[C@@H]2O[C@H](COC(C)=O)[C@@H](OC(C)=O)[C@H](OC(C)=O)[C@H]2OC(C)=O)c2ccccc21	100 (≈ 59.3 µg/mL)
CC(=O)OC[C@H]1O[C@@H](NC(=S)N/N=C2/C(=O)Nc3ccccc32)[C@H](OC(C)=O)[C@@H](OC(C)=O)[C@@H]1OC(C)=O	100 (≈ 55.1 µg/mL)
